Laboratory results: patent US8975415B2, “Chromane compounds” (CoMentis, Inc., priority 2012, dated 2015)
Read-outs that look alike come from different tables or passages of the source.

Tests used:
hERG potassium channel = hERG potassium channel (Homo sapiens (Human), UniProt Q12809); assay: hERG inhibition, automated planar patch-clamp in hERG-expressing CHO cells; settings: for selectivity ratio: human, CHO-K1 cells stably expressing hERG, pH 7.4
BACE1 [1] = target: T1, BACE1 (Homo sapiens (Human), UniProt P56817); assay: Measurement of Aβ production inhibition in cell (SK-N-BE(2) neuroblastoma cells, Aβ40 ELISA); settings: SK-N-BE(2) cells, 6 hours
Target sequence in this assay (P56817 46-501): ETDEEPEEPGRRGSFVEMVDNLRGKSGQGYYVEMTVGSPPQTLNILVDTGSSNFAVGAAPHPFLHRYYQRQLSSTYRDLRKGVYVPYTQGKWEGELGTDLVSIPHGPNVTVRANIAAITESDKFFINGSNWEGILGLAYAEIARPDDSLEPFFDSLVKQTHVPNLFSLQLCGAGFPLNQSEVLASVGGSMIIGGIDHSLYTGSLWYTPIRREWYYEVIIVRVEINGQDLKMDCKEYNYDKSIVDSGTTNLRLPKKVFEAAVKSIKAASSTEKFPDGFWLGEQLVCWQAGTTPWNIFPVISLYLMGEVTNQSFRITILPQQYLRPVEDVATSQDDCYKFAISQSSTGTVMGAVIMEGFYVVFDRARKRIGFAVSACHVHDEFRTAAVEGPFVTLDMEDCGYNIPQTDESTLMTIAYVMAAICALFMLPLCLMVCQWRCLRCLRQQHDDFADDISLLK
Experimental: The potency of compounds against BACE1 activity was determined in a cellular assay of Aβ production. […] Test compounds were dissolved in dimethyl sulfoxide and diluted with dimethyl sulfoxide and put into RPMI1640/5% FBS/penicillin-streptomycin media (final dimethyl sulfoxide concentration is 0.5%). […] CellTiter-Glo Substrate was dissolved into CellTiter-Glo Buffer and added to the plates in 95 μL/well. After shaking the plates for 2 minutes, the whole sample was transferred into a white 96-well plate and luminescence was measured for ATP quantification as the cell viability. Aβ concentration measured by ELISA was normalized by the viability of the corresponding cells.

BACE1 [2] = target: T1, BACE1; assay: Measurement of BACE1 inhibition by fluorescence resonance energy transfer (FRET), MCA substrate; settings: for IC50: read-out: Test Example 1 IC50, MCA-SEVNLDAEFK(DNP)-NH2 substrate, pH 4.4
Target sequence in this assay (P56817 75-416): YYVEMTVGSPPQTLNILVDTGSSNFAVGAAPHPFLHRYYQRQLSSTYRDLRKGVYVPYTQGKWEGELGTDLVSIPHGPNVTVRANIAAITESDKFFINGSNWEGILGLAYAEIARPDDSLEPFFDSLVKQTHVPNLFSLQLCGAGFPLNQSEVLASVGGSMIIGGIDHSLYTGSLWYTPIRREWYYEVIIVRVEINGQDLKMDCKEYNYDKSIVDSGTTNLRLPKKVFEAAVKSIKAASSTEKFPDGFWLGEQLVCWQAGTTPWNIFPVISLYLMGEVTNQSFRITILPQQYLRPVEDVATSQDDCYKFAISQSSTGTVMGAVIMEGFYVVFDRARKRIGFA

[3] = Test Example 3 IC50, Aβ40 production
[4] = read-out: Test Example 1 BACE1 MCA Ki, FRET, MCA substrate
[5] = read-out: Test Example 5 hERG IC50, whole-cell patch clamp, room temperature

Chain of hERG potassium channel (Q12809 whole entry): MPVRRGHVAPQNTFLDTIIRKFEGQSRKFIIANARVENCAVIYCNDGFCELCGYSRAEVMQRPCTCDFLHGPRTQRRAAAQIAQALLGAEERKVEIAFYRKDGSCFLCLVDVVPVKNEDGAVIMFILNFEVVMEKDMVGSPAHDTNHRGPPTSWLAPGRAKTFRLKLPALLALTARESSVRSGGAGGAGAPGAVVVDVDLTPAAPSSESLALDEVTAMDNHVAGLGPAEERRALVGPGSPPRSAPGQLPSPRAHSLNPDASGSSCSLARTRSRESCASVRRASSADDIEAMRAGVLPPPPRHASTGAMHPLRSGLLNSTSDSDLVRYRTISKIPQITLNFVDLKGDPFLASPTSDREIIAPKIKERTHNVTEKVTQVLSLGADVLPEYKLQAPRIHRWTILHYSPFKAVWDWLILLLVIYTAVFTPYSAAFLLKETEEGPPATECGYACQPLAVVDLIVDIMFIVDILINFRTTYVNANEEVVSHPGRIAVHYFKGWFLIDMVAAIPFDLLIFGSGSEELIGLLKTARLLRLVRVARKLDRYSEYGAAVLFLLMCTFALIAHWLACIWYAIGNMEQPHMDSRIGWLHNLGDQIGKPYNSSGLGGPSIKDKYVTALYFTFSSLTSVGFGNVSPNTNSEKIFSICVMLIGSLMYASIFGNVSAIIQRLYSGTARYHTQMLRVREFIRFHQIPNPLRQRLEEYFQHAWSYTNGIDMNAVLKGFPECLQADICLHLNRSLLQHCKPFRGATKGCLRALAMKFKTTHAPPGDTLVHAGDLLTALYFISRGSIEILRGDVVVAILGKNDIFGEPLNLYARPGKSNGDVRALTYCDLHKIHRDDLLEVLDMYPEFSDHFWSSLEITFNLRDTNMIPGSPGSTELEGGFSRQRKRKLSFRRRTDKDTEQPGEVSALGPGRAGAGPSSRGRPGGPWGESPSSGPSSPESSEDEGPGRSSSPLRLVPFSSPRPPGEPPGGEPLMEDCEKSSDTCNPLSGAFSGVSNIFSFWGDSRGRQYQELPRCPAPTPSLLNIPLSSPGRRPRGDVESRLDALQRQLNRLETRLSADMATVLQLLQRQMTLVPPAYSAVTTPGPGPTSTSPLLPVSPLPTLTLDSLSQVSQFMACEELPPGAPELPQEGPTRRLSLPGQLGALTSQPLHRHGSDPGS

SMILES | IC50 (BACE1 [1]; [3]) [nM] | IC50 (BACE1 [2]; FRET) [nM] | other results
C[C@H]1Oc2ccc(-c3cccnc3F)cc2[C@@]2(COC(N)=N2)C12COC2 (racemic) [RP 77] |  |  | IC50 (hERG potassium channel): > 10000 nM
CCOc1cccc(-c2ccc3c(c2)C2(COC(N)=N2)C2(COC2)C2(CCC2)O3)c1 (stereo not drawn) [RP 131] | 3200 | 2020 | 
Cc1cnc(C(=O)Nc2ccc3c(c2)C2(COC(N)=N2)CC(C)(C)C3)cn1 (racemic) [WO2011/123674 Example 98, reference compound] |  |  | IC50 (hERG potassium channel): 9460 nM; selectivity ratio (hERG potassium channel): 2.3; Ki (BACE1 [2]): 4090 nM
CC1(C)Cc2ccc(NC(=O)c3ccc(Cl)cn3)cc2C2(COC(N)=N2)C1 (racemic) [WO2011/123674 Example 89, reference compound] |  |  | IC50 (hERG potassium channel): 440 nM; selectivity ratio (hERG potassium channel): 1.8; Ki (BACE1 [2]): 241 nM
CCC(CC)Cc1ccc2c(c1)C1(COC(N)=N1)C1(COC1)C1(CCC1)O2 (stereo not drawn) [RP 47] | 1400 | 2330 | 
NC1=NC2(CO1)c1cc(-c3cncc(OC(F)F)c3)ccc1OCC21CC1 (stereo not drawn) [RP 60] | 160 | 1480 | 
N#Cc1cncc(-c2ccc3c(c2)C2(COC(N)=N2)C2(COC2)C2(CCC2)O3)c1 (stereo not drawn) [RP 120] | 2300 | 1890 | 
NC1=NC2(CO1)c1cc(-c3cc(Cl)cnc3F)ccc1OC1(CCC1)C21COC1 (stereo not drawn) [RP 73] | 70 | 827 | 
Cc1cc(F)cc(-c2ccc3c(c2)C2(COC(N)=N2)C2(COC2)C(C)(C)O3)c1 (stereo not drawn) [RP 148] | 480 | 614 | 
NC1=NC2(CO1)c1cc(-c3cncc(F)c3)ccc1OC1(CCC1)C21COC1 (stereo not drawn) [RP 70] | 960 | 1750 | 
CCC1Oc2ccc(-c3cncnc3)cc2C2(COC(N)=N2)C12COC2 (stereo not drawn) [RP 87] | 430 | 1550 | 
CCOc1cc(-c2ccc3c(c2)C2(COC(N)=N2)C2(COC2)C2(CCC2)O3)cc(C(F)(F)F)c1 (stereo not drawn) [RP 129] | 7300 | 2210 | 
COCC#Cc1cncc(-c2ccc3c(c2)C2(COC(N)=N2)C2(COC2)CO3)c1 (stereo not drawn) [RP 19, 6′-[5-(3-methoxyprop-1-yn-1-yl)pyridin-3-yl]dispiro[1,3-oxazole-4,4′-chromene-3′,3″-oxetan]-2-amine] | 430 | 2310 | 
NC1=NC2(CO1)c1cc(C3=CCCCC3)ccc1OC1(CCC1)C21COC1 (stereo not drawn) [RP 135] | 1800 | 3270 | 
NC1=NC2(CO1)c1cc(-c3cncc(OCC(F)(F)F)c3)ccc1OCC21CC1 (stereo not drawn) [RP 58] | 180 | 1480 | 
NC1=NC2(CS1)c1cc(Br)ccc1OCC21COC1 (stereo not drawn) [RP 41, 6′-bromodispiro[oxetane-3,3′-chromene-4′,4″-[1,3]thiazol]-2″-amine] | > 30000 | 24800 | 
CCCC1Oc2ccc(-c3cncnc3)cc2C2(COC(N)=N2)C12COC2 (stereo not drawn) [RP 94] | 380 | 862 | 
COc1ccc(F)c(-c2ccc3c(c2)C2(COC(N)=N2)C2(COC2)CO3)c1 (stereo not drawn) [RP 33] | 950 | 1520 | 
CC#Cc1cncc(-c2ccc3c(c2)C2(COC(N)=N2)C2(COC2)C(CC2CC2)O3)c1 (stereo not drawn) [RP 205] | 22 | 126 | Ki (BACE1 [2]; [4]): 82.5 nM

SMILES | IC50 (BACE1 [1]; [3]) [nM] | IC50 (BACE1 [2]; FRET) [nM] | other results
CC1(C)Oc2ccc(-c3cc(F)ncc3Cl)cc2C2(COC(N)=N2)C12COC2 (stereo not drawn) [RP 158] | 370 | 930 | 
CC#Cc1cncc(-c2ccc3c(c2)C2(COC(N)=N2)C2(COC2)C(CCC(F)(F)F)O3)c1 (stereo not drawn) [RP 96] | 22 | 126 | Ki (BACE1 [2]; [4]): 868 nM
NC1=NC2(CO1)c1cc(-c3cccc(F)c3)ccc1OC1(CCC1)C21COC1 (stereo not drawn) [RP 125] | 580 | 2310 | 
NC1=NC2(CO1)c1cc(Nc3ncccc3Cl)ccc1OC1(CCC1)C21COC1 (stereo not drawn) [RP 44] | 98 | 602 | 
NC1=NC2(CO1)c1cc(Br)ccc1OC1(CCCC1)C21COC1 (stereo not drawn) [RP 10] |  | 7210 | IC50 (hERG potassium channel; [5]): > 10000 nM
NC1=NC2(c3cc(-c4cncnc4)ccc3OCC23CC3)C(F)(F)CO1 (stereo not drawn) [RP 206] | > 30000 | 4910 | 
CC1(C)Oc2ccc(-c3cc(Cl)cnc3Cl)cc2C2(COC(N)=N2)C12COC2 (stereo not drawn) [RP 152] | 110 | 688 | 
Cc1cnc(F)c(-c2ccc3c(c2)C2(COC(N)=N2)C2(COC2)C2(CCC2)O3)c1 (stereo not drawn) [RP 116, 6′-(2-fluoro-5-methylpyridin-3-yl)trispiro[cyclobutane-1,2′-chromene-4′,4″-[1,3]oxazole-3′,3′″-oxetan]-2″-amine] |  |  | IC50 (hERG potassium channel; [5]): > 10000 nM
CC(C)CC1Oc2ccc(-c3cncnc3)cc2C2(COC(N)=N2)C12COC2 (stereo not drawn) [RP 93] | 370 | 629 | 
Cc1cc(C#N)cnc1C(=O)Nc1ccc2c(c1)C1(COC(N)=N1)C1(CC1)CO2 (stereo not drawn) [RP 191] |  |  | IC50 (hERG potassium channel; [5]): > 10000 nM
CC1(C)Oc2ccc(-c3cccc(C(F)(F)F)c3)cc2C2(COC(N)=N2)C12COC2 (stereo not drawn) [RP 141] | 1300 | 903 | 
COc1cnc(C(=O)Nc2ccc3c(c2)C2(COC(N)=N2)C2(COC2)C(C)(C)O3)cn1 (stereo not drawn) [Example 227] |  |  | IC50 (hERG potassium channel; [5]): > 10000 nM
CC1(C)Oc2ccc(-c3cccnc3F)cc2C2(COC(N)=N2)C12COC2 (stereo not drawn) [RP 82] | 36 | 348 | 
NC1=NC2(CO1)c1cc(-c3cncc(OCC(F)(F)C(F)F)c3)ccc1OCC21CC1 (stereo not drawn) [RP 64] | 2300 | 6120 | 
NC1=NC2(c3cc(-c4cncnc4)ccc3OCC23CC3)C(F)(F)CS1 (stereo not drawn) [RP 198, 5″,5″-difluoro-6′-(pyrimidin-5-yl)-5″,6″-dihydrodispiro[cyclopropane-1,3′-chromene-4′,4″-[1,3]thiazin]-2″-amine] |  | 14900 | IC50 (hERG potassium channel; [5]): > 1000 nM
CC1(C)Oc2ccc(NC(=O)c3ccc(F)cn3)cc2C2(COC(N)=N2)C12COC2 (stereo not drawn) [Example 28] |  |  | IC50 (BACE1 [1]; read-out: Test Example 3 IC50, Aβ40 production): 19 nM; Ki (BACE1 [2]; [4]): 117 nM
NC1=NC2(CO1)c1cc(-c3cncnc3)ccc1OCC21CCCO1 (stereo not drawn) [RP 97] | 2600 | 20200 | 
N#Cc1ncccc1-c1ccc2c(c1)C1(COC(N)=N1)C1(COC1)C1(CCC1)O2 (stereo not drawn) [RP 115, 3-(2″-aminotrispiro[cyclobutane-1,2′-chromene-4′,4″-[1,3]oxazole-3′,3′″-oxetan]-6′-yl)pyridine-2-carbonitrile] | 1100 | 3310 | 
CC1(C)Oc2ccc(-c3cccc(Cl)c3)cc2C2(COC(N)=N2)C12COC2 (stereo not drawn) [RP 139] | 140 | 252 | Ki (BACE1 [2]; [4]): 215 nM

SMILES | IC50 (BACE1 [1]; [3]) [nM] | IC50 (BACE1 [2]; FRET) [nM] | other results
CC1(C)Oc2ccc(-c3cncnc3)cc2C2(COC(N)=N2)C12COC2 (stereo not drawn) [RP 69] | 40 | 397 | 
COc1cccnc1Nc1ccc2c(c1)C1(COC(N)=N1)C1(COC1)CO2 (stereo not drawn) [RP 26] | 69 | 3750 | 
CC1(C)Oc2ccc(-c3cncnc3)cc2C2(COC(N)=N2)C12COC2 (single isomer, unassigned) [RP 51b, 2′,2′-dimethyl-6′-(pyrimidin-5-yl)dispiro[1,3-oxazole-4,4′-chromene-3′,3″-oxetan]-2-amine] | 72 | 172 | Ki (BACE1 [2]; [4]): 137 nM
COc1cncc(-c2ccc3c(c2)[C@@]2(COC(N)=N2)C2(COC2)[C@@H](C)O3)c1 (racemic) [RP 81] | 510 | 1890 | 
COc1ccc(F)c(-c2ccc3c(c2)C2(COC(N)=N2)C2(COC2)C2(CCC2)O3)c1 (stereo not drawn) [RP 136, 6′-(2-fluoro-5-methoxyphenyl)trispiro[cyclobutane-1,2′-chromene-4′,4″-[1,3]oxazole-3′,3′″-oxetan]-2″-amine] | 660 | 635 | 
COc1cccc(-c2ccc3c(c2)C2(COC(N)=N2)C2(COC2)C(C)(C)O3)c1 (stereo not drawn) [RP 142] | 150 | 401 | 
CC#Cc1cncc(-c2ccc3c(c2)C2(COC(N)=N2)C2(COC2)C2(CCC2)O3)c1 (stereo not drawn) [RP 109] | 48 | 152 | Ki (BACE1 [2]; [4]): 120 nM
NC1=NC2(CO1)c1cc(NC(=O)c3ccc(F)cn3)ccc1OCC21CC1 (stereo not drawn) [RP 31, N-(2″-aminodispiro[cyclopropane-1,3′-chromene-4′,4″-[1,3]oxazol]-6′-yl)-5-fluoropyridine-2-carboxamide] | 61 | 1060 | Ki (BACE1 [2]; [4]): 1030 nM
C[C@@H]1Oc2ccc(-c3cccnc3F)cc2[C@@]2(COC(N)=N2)C12COC2 (racemic) [RP 79] |  |  | IC50 (hERG potassium channel; [5]): > 10000 nM
CC1(C)Oc2ccc(-c3cc(F)cnc3Cl)cc2C2(COC(N)=N2)C12COC2 (stereo not drawn) [RP 153] | 130 | 1130 | 
Cc1cc(-c2ccc3c(c2)C2(COC(N)=N2)C2(COC2)C(C)(C)O3)cnc1F (stereo not drawn) [RP 157] | 660 | 2800 | 
CC1(C)Oc2ccc(-c3cccnc3Cl)cc2C2(COC(N)=N2)C12COC2 (stereo not drawn) [RP 156] | 180 | 2610 | 
Cc1cccc(-c2ccc3c(c2)C2(COC(N)=N2)C2(COC2)C2(CCC2)O3)c1 (stereo not drawn) [RP 127] | 1800 | 2270 | 
NC1=NC2(CO1)c1cc(-c3cncnc3)ccc1OCC21COC1 (stereo not drawn) [RP 36] | 810 | 2900 | 
CCOc1cccc(-c2ccc3c(c2)C2(COC(N)=N2)C2(COC2)C(C)(C)O3)c1 (stereo not drawn) [RP 144] | 460 | 879 | 
COc1cnc(C(=O)Nc2ccc3c(c2)C2(COC(N)=N2)C2(CC2)CO3)cn1 (stereo not drawn) [RP 193] | 81 | 1040 | 
CC#Cc1cncc(-c2cc3c(cc2F)OCC2(CC2)C32COC(N)=N2)c1 (stereo not drawn) [RP 112] | 660 | 400 | 
CC#Cc1cncc(-c2ccc3c(c2)C2(COC(N)=N2)C2(CCC2)CO3)c1 (stereo not drawn) [RP 113] | 470 | 1110 | 
C#Cc1cncc(-c2ccc3c(c2)C2(COC(N)=N2)C2(COC2)CO3)c1 (stereo not drawn) [RP 23] | 900 | 519 | 
